Measured values: patent publication US20060148014A1, “Tubulin isotype screening in cancer therapy using hemiasterlin analogs” (priority 2004, published 2006)
Where two headings read alike, the source gives them in different places. Blank lines part the entries; values can stand above or below the molecule they belong to.

Columns and labels:
[1] = test system: HCC2218 human breast cancer cell line; assay: Cell growth inhibition assay (methylene blue), HCC2218; format: cell-based
Description: (§1) The following human breast cancer cell lines were obtained from the ATCC. Cells were maintained according to ATCC-recommended culture conditions. AU565 (ATCC Catalog No. ATCC Catalog. No. CRL-2351), BT-20 (ATCC Catalog No. HTB-19), MCF7 (ATCC Catalog No. HTB22), MDA-MB-231 (ATCC Catalog No. HTB-26), MDA-MB-435 (ATCC Catalog No. HTB-129), MDA-MB-468 (ATCC Catalog No. HTB-132), HCC38 (ATCC Catalog No. CRL-2314), HCC70 (ATCC Catalog No. CRL-2315), HCC1143 (ATCC Catalog No. CRL-2321), HCC1428 (ATCC Catalog No. CRL-2327), HCC1500 (ATCC Catalog No. CRL-2329), HCC1806 (ATCC Catalog No. CRL-2335), HCC1954 (ATCC Catalog No. CRL-2338), HCC2218 (ATCC Catalog No. CRL-2343), UACC-812 (ATCC Catalog No. CRL-1897), UACC-893 (ATCC Catalog No. CRL-1902), ZR-75-1 (ATCC Catalog No. CRL-1500), ZR-75-30 (ATCC Catalog No. CRL-1504).
(§2) Cultured human breast cancer cells were placed in 96-well plates and grown in the continuous presence of test compounds for 4 or 7 days. To expose the cells to test compounds for 7 days, medium was replaced with fresh medium containing compounds after 4 days of exposure and cells were incubated for 3 additional days. Cell growth was assessed using modifications (Amin et al., Cancer Res., 47:6040-6045, 1987; incorporated herein by reference) of a methylene blue-based microculture assay (Finlay et al., Anal. Biochem., 139:272-277, 1984; incorporated herein by reference).
(§3) To investigate the possible expression of PgP by the cell lines used in this study, the antiproliferative effects of paclitaxel were determined in the presence and absence of verapamil, a known inhibitor of PgP.

[2] = test system: MDA-MB-231 human breast cancer cell line; assay: Cell growth inhibition assay (methylene blue), MDA-MB-231; format: cell-based
Description: as §1, §2, §3

[3] = test system: ZR-75-30 human breast cancer cell line; assay: Cell growth inhibition assay (methylene blue), ZR-75-30; format: cell-based
Description: as §1, §2, §3

[4] = test system: HCC1419 human breast cancer cell line; assay: Cell growth inhibition assay (methylene blue), HCC1419; format: cell-based
Experimental: as §2, §3

[5] = test system: HCC1500 human breast cancer cell line; assay: Cell growth inhibition assay (methylene blue), HCC1500; format: cell-based
Description: as §1, §2, §3

[6] = test system: MCF-7 human breast cancer cell line; assay: Cell growth inhibition assay (methylene blue), MCF-7; format: cell-based
Description: as §1, §2, §3

[7] = test system: HCC1806 human breast cancer cell line; assay: Cell growth inhibition assay (methylene blue), HCC1806; format: cell-based
Description: as §1, §2, §3

[8] = test system: UACC-893 human breast cancer cell line; assay: Cell growth inhibition assay (methylene blue), UACC-893; format: cell-based
Description: as §1, §2, §3

[9] = test system: ZR-75-1 human breast cancer cell line; assay: Cell growth inhibition assay (methylene blue), ZR-75-1; format: cell-based
Description: as §1, §2, §3

[10] = test system: HCC38 human breast cancer cell line; assay: Cell growth inhibition assay (methylene blue), HCC38; format: cell-based
Description: as §1, §2, §3

[11] = test system: HCC1428 human breast cancer cell line; assay: Cell growth inhibition assay (methylene blue), HCC1428; format: cell-based
Description: as §1, §2, §3

[12] = test system: cells expressing class II β-tubulin; details: Haber et al. J. Biol. Chem. 1995; cited from earlier work
[13] = test system: HCC1954 human breast cancer cell line; assay: Cell growth inhibition assay (methylene blue), HCC1954; format: cell-based
Description: as §1, §2, §3

[14] = test system: HCC1143 human breast cancer cell line; assay: Cell growth inhibition assay (methylene blue), HCC1143; format: cell-based
Description: as §1, §2, §3

[15] = test system: HCC70 human breast cancer cell line; assay: Cell growth inhibition assay (methylene blue), HCC70; format: cell-based
Description: as §1, §2, §3

[16] = test system: MDA-MB-435 human breast cancer cell line; assay: Cell growth inhibition assay (methylene blue), MDA-MB-435; format: cell-based
Description: as §1, §2, §3

[17] = test system: panel of 19 human breast cancer cell lines; assay: Cell growth inhibition assay, panel of 19 human breast cancer cell lines; format: cell-based; details: panel of 19 human breast cancer cell lines
Description: as §1, §2
Antiproliferative effects of four tubulin-binding anticancer agents were evaluated by a methylene blue-based cell growth inhibin assay in a panel of 19 human breast cancer cell lines. The following agents were used in this study: halichondrin analog E7389, hemiasterlin analog E7974, vinblastine, and paclitaxel. Each IC50 determination was conducted in at least three separate experiments. A presence of multidrug resistance efflux pump (P-glycoprotein or PgP) could markedly affect sensitivity of cell lines to test agents and thus mask correlations between beta-tubulin expression and cell lines' sensitivity to test agents. Cell lines were therefore tested for evidence of PgP expression by monitoring effects of the PgP blocker verapamil (used at a 10 μM concentration) on paclitaxel sensitivity. No evidence for PgP expression was found in any of the cell lines tested (Table 4). […] Inter-drug correlations were seen between sensitivities to the three microtubule polymerization inhibitors E7974, E7389, and vinblastine, but not between the microtubule polymerization stabilizer paclitaxel.

[18] = test system: BT-20 human breast cancer cell line; assay: Cell growth inhibition assay (methylene blue), BT-20; format: cell-based
Description: as §1, §2, §3

[19] = test system: MDA-MB-468 human breast cancer cell line; assay: Cell growth inhibition assay (methylene blue), MDA-MB-468; format: cell-based
Description: as §1, §2, §3

[20] = test system: UACC-812 human breast cancer cell line; assay: Cell growth inhibition assay (methylene blue), UACC-812; format: cell-based
Description: as §1, §2, §3

[21] = test system: AU565 human breast cancer cell line; assay: Cell growth inhibition assay (methylene blue), AU565; format: cell-based
Description: as §1, §2, §3

[22] = +10 μM verapamil (PgP blocker), read-out: Paclitaxel IC50 (+10 μM verapamil)
[23] = continuous presence of compound 4 or 7 days, at least three experiments, read-out: Average IC50
[24] = no verapamil, read-out: Paclitaxel IC50 (no verapamil)

IC50 ([1]; HC-2218, continuous presence of compound 4 or 7 days, at least three experiments, read-out: Average IC50): 6.72 nM | IC50 ([1]; HCC-2218, +10 μM verapamil (PgP blocker), read-out: Paclitaxel IC50 (+10 μM verapamil)): 5 nM | IC50 ([1]; HCC-2218, no verapamil, read-out: Paclitaxel IC50 (no verapamil)): 5.6 nM | IC50 [2, 22]: 5.1 nM | IC50 [2, 23]: 5.07 nM | IC50 [2, 24]: 4.9 nM | IC50 [3, 22]: 4.1 nM | IC50 [3, 23]: 4.06 nM | IC50 [3, 24]: 3.9 nM | IC50 ([4]; HCC-1419, +10 μM verapamil (PgP blocker), read-out: Paclitaxel IC50 (+10 μM verapamil)): 7 nM | IC50 ([4]; HCC-1419, no verapamil, read-out: Paclitaxel IC50 (no verapamil)): 5.2 nM | IC50 [4, 23]: 5.41 nM | IC50 ([5]; HCC-1500, +10 μM verapamil (PgP blocker), read-out: Paclitaxel IC50 (+10 μM verapamil)): 3.2 nM | IC50 ([5]; HCC-1500, no verapamil, read-out: Paclitaxel IC50 (no verapamil)): 4.6 nM | IC50 [5, 23]: 2.48 nM | IC50 ([6]; MCF7, +10 μM verapamil (PgP blocker), read-out: Paclitaxel IC50 (+10 μM verapamil)): 2.7 nM | IC50 ([6]; MCF7, continuous presence of compound 4 or 7 days, at least three experiments, read-out: Average IC50): 2.31 nM | IC50 ([6]; MCF7, no verapamil, read-out: Paclitaxel IC50 (no verapamil)): 3.3 nM | IC50 ([7]; HCC-1806, +10 μM verapamil (PgP blocker), read-out: Paclitaxel IC50 (+10 μM verapamil)): 1.9 nM | IC50 ([7]; HCC-1806, no verapamil, read-out: Paclitaxel IC50 (no verapamil)): 1.8 nM | IC50 [7, 23]: 2.1 nM | IC50 [8, 22]: 4.1 nM | IC50 [8, 23]: 2.73 nM | IC50 [8, 24]: 6.3 nM | IC50 [9, 22]: 5.9 nM | IC50 [9, 23]: 3.35 nM | IC50 [9, 24]: 5.3 nM | IC50 ([10]; HCC-38, +10 μM verapamil (PgP blocker), read-out: Paclitaxel IC50 (+10 μM verapamil)): 6.2 nM | IC50 ([10]; HCC-38, no verapamil, read-out: Paclitaxel IC50 (no verapamil)): 5.9 nM | IC50 [10, 23]: 2.94 nM | IC50 ([11]; HCC-1428, +10 μM verapamil (PgP blocker), read-out: Paclitaxel IC50 (+10 μM verapamil)): 9.5 nM | IC50 ([11]; HCC-1428, no verapamil, read-out: Paclitaxel IC50 (no verapamil)): 9 nM | IC50 [11, 23]: 5.03 nM | IC50 ([13]; HCC-1954, +10 μM verapamil (PgP blocker), read-out: Paclitaxel IC50 (+10 μM verapamil)): 11.7 nM | IC50 ([13]; HCC-1954, no verapamil, read-out: Paclitaxel IC50 (no verapamil)): 11.7 nM | IC50 [13, 23]: 8.48 nM | IC50 ([14]; HCC-1143, +10 μM verapamil (PgP blocker), read-out: Paclitaxel IC50 (+10 μM verapamil)): 2.9 nM | IC50 ([14]; HCC-1143, no verapamil, read-out: Paclitaxel IC50 (no verapamil)): 2.8 nM | IC50 [14, 23]: 2.11 nM | IC50 [16, 22]: 2.7 nM | IC50 [16, 23]: 2.42 nM | IC50 [16, 24]: 2.6 nM | fold-difference between IC50's in the most sensitive and the least sensitive cell line [17]: 5.8 fold | IC50 [18, 22]: 2.7 nM | IC50 [18, 23]: 2.63 nM | IC50 [18, 24]: 3.9 nM | IC50 [19, 22]: 5.4 nM | IC50 [19, 23]: 4.3 nM | IC50 [19, 24]: 5.1 nM | IC50 [20, 22]: 1.9 nM | IC50 [20, 23]: 1.46 nM | IC50 [20, 24]: 2.7 nM | IC50 ([21]; AU-565, +10 μM verapamil (PgP blocker), read-out: Paclitaxel IC50 (+10 μM verapamil)): 4.8 nM | IC50 ([21]; AU-565, no verapamil, read-out: Paclitaxel IC50 (no verapamil)): 5.4 nM | IC50 [21, 23]: 2.5 nM
Structure (SMILES): CC(=O)O[C@H]1C(=O)[C@@]2(C)[C@H]([C@H](OC(=O)c3ccccc3)[C@]3(O)C[C@H](OC(=O)[C@H](O)[C@@H](NC(=O)c4ccccc4)c4ccccc4)C(C)=C1C3(C)C)[C@]1(OC(C)=O)CO[C@@H]1C[C@@H]2O [Paclitaxel, paclitaxel]
effectiveness in treating cells expressing class II β-tubulin [12]: not be effective | IC50 ([15]; HCC-70, +10 μM verapamil (PgP blocker), read-out: Paclitaxel IC50 (+10 μM verapamil)): 1.9 nM | IC50 ([15]; HCC-70, no verapamil, read-out: Paclitaxel IC50 (no verapamil)): 2 nM | IC50 [15, 23]: 2.25 nM

Structure (SMILES): C/C(=C\[C@H](C(C)C)N(C)C(=O)[C@@H](NC(=O)[C@H]1CCCCN1C(C)C)C(C)(C)C)C(=O)O [E7974]
fold-difference between IC50's in the most sensitive and the least sensitive cell line [17]: 6.8 fold
